The subject of the data set is eye. Put plainly: Acute non-GLP IVT ocular tolerability and toxicity study of sunitinib malate (free drug). As to conditions: single bilateral IVT injection, up to 7 days. It counts as in vivo, pigmented rabbits. As to the method:
An acute, non-GLP IVT study was conducted to evaluate the ocular tolerability and toxicity of sunitinib malate (free drug) for up to 7 days following a single IVT injection. Sunitinib malate was formulated in phosphate buffered saline and injected bilaterally (0.1 mL) at 0.125 or 1.25 mg per eye.

Each structure is given as a SMILES string.

For the compound `CCN(CC)CCNC(=O)c1c(C)[nH]c(/C=C2\C(=O)Nc3ccc(F)cc32)c1C` [sunitinib malate], the “no-observed-adverse-effect-level (NOAEL) dose” value is reported as 0.125 mg/eye.

For the origin of these results see patent US11160870B2, “Extended release microparticles and suspensions thereof for medical therapy” (Graybug Vision, Inc., priority 2017, dated 2021).
